Experimental data reported in US7297817B2, “Thio-substituted arylmethanesulfinyl derivatives” (Cephalon France, priority 2004, dated 2007).

Assays:
Wistar rats = assay: Evaluation of Wake Promoting Activity in Rats (EEG/EMG sleep/wake scoring); assay type: in vivo, rat; settings: i.p. route, 100 mg/kg; for Mean AUC0–3h, test compound: first 3 hrs following dosing, n = 8 rats; for wakefulness compared to vehicle-treated animals: p<0.05 vs control groups
Experimental: The methodology utilized for evaluating wake promoting activity of test compounds is based on that described by Edgar and Seidel, Journal of Pharmacology and Experimental Therapeutics, 283:757-769, 1997, and incorporated herein in its entirety by reference.
Animal Surgery. Adult, male Wistar rats (275-320 g from Charles River Laboratories, Wilmington, Mass.) were anesthetized (Nembutal, 45 mg/kg, ip.) and surgically prepared with implants for recording of chronic EEG (encephalographic) and EMG (electromyographic) recording. The EEG implants were made from commercially available components (Plastics One, Roanoke, Va.). EEG signals were recorded from stainless steel screw electrodes: 2 frontal (+3.0 mm AP from bregma, ±2.0 mm ML), and 2 occipital (−4.0 mm AP from bregma, ±2.0 mm ML). Two Teflon-coated stainless steel wires were positioned under the nuchal trapezoid muscles for EMG recording. All electrode leads were inserted into a connector pedestal and the pedestal affixed to the skull by application dental acrylic. Antibiotic was administered post surgically and antibiotic cream was applied to the wound edges to prevent infection. At least one week elapsed between surgery and recording.
Recording environment. Postsurgically, rats were housed in pairs in an isolated room. Food and water were available ad libitum, ambient temperature was 21° C., and humidity was 55%. At least 24 hrs prior to recording, they were placed in Nalgene containers (31×31×31 cm) with a wire-grid top, and entry to the room was prohibited during the day of recording except for dosing. The containers were placed on a rack with two shelves, 4 containers per shelf. Fluorescent overhead room lights were set to a 24 hr. light/dark cycle (on at 7 AM, off at 7 PM). Light levels inside the containers were 38 and 25 lux for the top and bottom shelves respectively. Background white-noise (68 db inside the containers) was present in the room to mask ambient sounds.
Data acquisition. EEG and EMG signals were led via cables to a commutator (Plastics One) and then to pre-amplifiers (model 1700, A-M Systems, Carlsborg, Wash.). EEG and EMG signals were amplified (10K and 1K respectively) and bandpass filtered between 0.3 and 500 Hz for EEG and between 10 and 500 Hz for EMG. […] On the day of dosing, data was recorded for 6 to 10 hours beginning at 11 AM.
Drug administration and study design. Compounds were evaluated on groups of from 4 to 8 rats carried out over one or two separate test sessions. […]
Sleep/wake scoring. Sleep and wake activity were determined manually using ICELUS software. […]

| Structure (SMILES) | Mean AUC0–3h, test compound (Wistar rats) | wakefulness compared to vehicle-treated animals (Wistar rats) | melting point |
| --- | --- | --- | --- |
| NC(=O)C[S+]([O-])Cc1ccccc1NC(=O)c1ccc(Cl)cc1 (centres unmarked) [Example 113, N-(2-carbamoylmethanesulfinylmethyl-phenyl)-4-chloro-benzamide] | 99.0 % of waiking time × hr | significantly greated wakefulness |  |
| CC(=O)N1CCN(C(=O)C[S+]([O-])Cc2ccc(Oc3ccc(Cl)c(Cl)c3)cc2)CC1 (centres unmarked) [Example 22, 1-(4-Acetyl-piperazin-1-yl)-2-[4-(3,4-dichloro-phenoxy)-phenylmethanesulfinyl]-ethanone] | 162.7 % of waiking time × hr | significantly greated wakefulness |  |
| NC(=O)C[S+]([O-])Cc1ccccc1COc1ccccc1 (centres unmarked) |  |  | 153 to 154 °C |
